Data as given in PMC12068008 (International Journal of Molecular Sciences, 2024).

Experiments:
[1] = molecular target: eeAChE (Electrophorus electricus, UniProt O42275); assay: biochemical; conditions: at 1 × 10^−4 M, 37 °C; for inhibition at 100 µM: read-out: Percentage Inhibition AChE
Description: The abilities of compounds to inhibit AChE and BuChE activity were determined following Ellman’s procedure, with AChI and BuChI as the enzyme substrate, respectively, and DTNB as a chromogenic reagent. AChE’s and BuChE’s working solutions were prepared at 20 mM TRIS and deionized water, respectively. AChI and BuChI solutions were prepared in deionized water. […] Stock solutions (10 mM) of investigated compounds were prepared daily by dissolving solid compounds in DMSO. The reaction mixture containing phosphate buffer, DTNB, enzyme, and compound was preincubated 30 min at 37 °C. After the preincubation time, the enzyme reaction was initiated by adding appropriate substrate and left to incubate for 6 min. After incubation, 0.1 M SDS was added to stop the reaction. […] A blank assay, containing all components except the enzyme, was used to account for non-enzyme reactions. The control solution contained all components except the inhibitor. All experiments were conducted in triplicate, and the results are expressed as the mean percentage enzyme activity compared to the control value. IC50 values were determined graphically using Origin 9 Microsoft Windows.

[2] = system: MDA-MB-468 cells; assay: SRB assay, MDA-MB-468 cells; assay type: cell-based, human; conditions: for IC50: Homo sapiens, MDA-MB-468, 72 h after treatment, SRB, read-out: IC50 MDA-468
Description: Two human breast cancer cell lines, MDA-MB-231 (HTB-26) and MDA-MB-468 (HTB-132), human cervical cancer cell line HeLa (CCL-2), and MRC-5 (CCL-171) fibroblasts were purchased from the American Type Culture Collection (ATCC, Manassas, VA, USA). All cell lines were cultured in Dulbecco’s Modified Eagle’s Medium (DMEM) with 4500 mg/L glucose and L-glutamine (Capricorn Scientific, Ebsdorfergrund, Germany), supplemented with 10% foetal bovine serum (PAN-Biotech, Aidenbach, Germany), 10,000 U/mL penicillin, and 10 mg/mL streptomycin solution (Capricorn Scientific) under standard conditions at 37 °C in a humidified 5% CO2 atmosphere (ESCO, Lifesciences Group, Singapore).
(§1) Cells were seeded on a 96-well plate (Thermo Fisher Scientific, Waltham, MA, USA) at 2 × 10^3 cells per well in DMEM medium. For the analysis of the concentration- and time-dependent effect of the analysed compounds, cell monolayers were treated 24 h after seeding with concentrations 1 × 10^−6, 1 × 10^−5, and 1 × 10^−4 M for 24, 48, or 72 h. Cell viability was detected using sulforhodamine B (SRB) assay, based on the staining of cellular proteins. The assay was performed according to the procedure described by Skehan et al.. The cells were fixed with 10% trichloroacetic acid (TCA, CARLO ERBA Reagents GmbH, Emmendingen, Germany) for 1 h at 4 °C, washed with water, and stained for 15 min with 0.4% SRB (Sigma-Aldrich Chemie GmbH, Steinheim, Germany) in 1% acetic acid. The unbound SRB dye was rinsed with 1% acetic acid, while the protein-bound dye was extracted with a 10 mM Tris base (Sigma-Aldrich). The absorbance was measured at 550 nm with a reference wavelength of 690 nm in a microplate reader (Wallac, VICTOR2 1420 Multilabel counter, PerkinElmer, Turku, Finland). The results were expressed as a percentage of the control, where the cell growth of the control is set to 100%. IC50, defined as the concentration that caused a 50% loss of cell growth, was calculated by non-linear regression analysis with the ED50plus v1.0 software. The selectivity index (SI) was determined according to the following formula:(2) SI=IC50 for fibroblast cell line/IC50 for tumour cell line
(§2) The assay was performed two times in 4 replicates for every experimental group. The statistical significance of differences between treated and untreated cells was estimated by the independent Student’s t-test, with the level of significance set at p < 0.05.

[3] = system: MDA-MB-231 cells; assay: SRB assay, MDA-MB-231 cells; assay type: cell-based; conditions: for IC50: Homo sapiens, MDA-MB-231, 72 h after treatment, SRB, read-out: IC50 MDA-231
Description: All cell lines were cultured in Dulbecco’s Modified Eagle’s Medium (DMEM) with 4500 mg/L glucose and L-glutamine (Capricorn Scientific, Ebsdorfergrund, Germany), supplemented with 10% foetal bovine serum (PAN-Biotech, Aidenbach, Germany), 10,000 U/mL penicillin, and 10 mg/mL streptomycin solution (Capricorn Scientific) under standard conditions at 37 °C in a humidified 5% CO2 atmosphere (ESCO, Lifesciences Group, Singapore).
as §1, with “The absorbance was measured at 550 nm with a reference wavelength of 690 nm in a microplate reader (Wallac, VICTOR2 1420 Multilabel counter, PerkinElmer, Turku, Finland).” left out, “IC50, defined as the concentration that caused a 50% loss of cell growth, was calculated by non-linear regression analysis with the ED50plus v1.0 software.” left out
as §2

[4] = molecular target: eqBuChE (Equus caballus, UniProt P81908); assay: BuChE inhibition (Ellman's procedure); assay type: biochemical; conditions: 37 °C; for IC50: read-out: IC50 BChE; for inhibition at 100 µM: at 1 × 10^−4 M, read-out: Percentage Inhibition BuChE
Sequence of eqBuChE (P81908 whole entry): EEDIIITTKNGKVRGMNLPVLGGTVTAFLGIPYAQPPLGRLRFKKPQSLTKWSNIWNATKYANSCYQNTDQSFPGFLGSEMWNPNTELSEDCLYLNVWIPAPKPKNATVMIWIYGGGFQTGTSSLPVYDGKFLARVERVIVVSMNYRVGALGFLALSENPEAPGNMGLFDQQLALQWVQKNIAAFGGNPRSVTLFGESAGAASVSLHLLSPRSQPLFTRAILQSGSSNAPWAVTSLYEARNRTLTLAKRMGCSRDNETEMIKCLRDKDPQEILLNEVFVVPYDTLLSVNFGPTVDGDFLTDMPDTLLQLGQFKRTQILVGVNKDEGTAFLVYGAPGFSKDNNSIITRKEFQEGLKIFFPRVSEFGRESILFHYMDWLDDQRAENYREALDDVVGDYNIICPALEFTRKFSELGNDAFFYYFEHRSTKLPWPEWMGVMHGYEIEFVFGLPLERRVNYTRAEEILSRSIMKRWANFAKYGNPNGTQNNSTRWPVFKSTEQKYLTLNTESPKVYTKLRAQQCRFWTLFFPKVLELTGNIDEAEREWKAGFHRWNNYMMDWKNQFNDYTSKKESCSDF
Description: The abilities of compounds to inhibit AChE and BuChE activity were determined following Ellman’s procedure, with AChI and BuChI as the enzyme substrate, respectively, and DTNB as a chromogenic reagent. AChE’s and BuChE’s working solutions were prepared at 20 mM TRIS and deionized water, respectively. AChI and BuChI solutions were prepared in deionized water. A 0.01 M DTNB solution was prepared with 0.1 M phosphate buffer (pH 7) containing 0.15% (w/v) sodium bicarbonate. Stock solutions (10 mM) of investigated compounds were prepared daily by dissolving solid compounds in DMSO. The reaction mixture containing phosphate buffer, DTNB, enzyme, and compound was preincubated 30 min at 37 °C. After the preincubation time, the enzyme reaction was initiated by adding appropriate substrate and left to incubate for 6 min. After incubation, 0.1 M SDS was added to stop the reaction. Absorbance measurements were performed using a UV/Vis spectrophotometer (Lambda 35, Perkin Elmer), measuring absorbance at 412 nm. A blank assay, containing all components except the enzyme, was used to account for non-enzyme reactions. The control solution contained all components except the inhibitor. All experiments were conducted in triplicate, and the results are expressed as the mean percentage enzyme activity compared to the control value. IC50 values were determined graphically using Origin 9 Microsoft Windows.

Sequence of eeAChE (O42275 24-633): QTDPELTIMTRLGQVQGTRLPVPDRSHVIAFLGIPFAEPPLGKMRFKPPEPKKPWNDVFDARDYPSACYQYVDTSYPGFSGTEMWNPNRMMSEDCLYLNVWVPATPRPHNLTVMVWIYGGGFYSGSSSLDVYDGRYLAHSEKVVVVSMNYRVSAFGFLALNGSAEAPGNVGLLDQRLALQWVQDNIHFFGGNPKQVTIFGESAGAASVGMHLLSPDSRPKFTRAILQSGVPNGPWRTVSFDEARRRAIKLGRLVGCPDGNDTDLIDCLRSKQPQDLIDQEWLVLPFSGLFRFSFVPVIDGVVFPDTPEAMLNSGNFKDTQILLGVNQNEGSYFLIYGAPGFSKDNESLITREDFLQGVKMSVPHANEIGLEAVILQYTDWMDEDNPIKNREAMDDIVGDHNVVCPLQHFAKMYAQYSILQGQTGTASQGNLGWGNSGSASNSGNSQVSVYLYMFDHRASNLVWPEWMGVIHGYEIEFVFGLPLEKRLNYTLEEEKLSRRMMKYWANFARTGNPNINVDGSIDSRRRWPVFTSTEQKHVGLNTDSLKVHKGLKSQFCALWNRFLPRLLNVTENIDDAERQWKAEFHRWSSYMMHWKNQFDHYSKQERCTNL

| SMILES | inhibition at 100 µM [1] [%] | IC50 [2] [µM] | Viability of MDA-231 cells ([3]; 72 h) | IC50 [3] [µM] | IC50 [4] [µM] | inhibition at 100 µM [4] [%] | Percentage Inhibition AChE [1] [%] | highest inhibition of MDA-468 cells ([2]; highest concentration, 72 h) [%] |
| --- | --- | --- | --- | --- | --- | --- | --- | --- |
| O=c1c(O)c(-c2ccc(O)c(O)c2)oc2c(CN3CCc4ccccc4C3)c(O)cc(O)c12 [Compound 2a] | 33.3 | > 200 | recovered to the control level or even increased | 146 ± 7 | 16.9 | 70 | – | – |
| COc1cc2c(cc1OC)CN(Cc1c(O)cc(O)c3c(=O)c(O)c(-c4ccc(O)c(O)c4)oc13)CC2 [Compound 2b] | 15 | 109 ± 5 | – | 106 ± 5 | 41.1 | 67.6 | 15.4 | 56.56 |
